Experiment [1] has as its system Canis familiaris. Nature of the experiment: Diuretic activity in mongrel dog assessed as excretion of sodium ion at 10 mg/kg, iv measured after 15 and 45 mins (reference value: 13 to 54 uequiv/min). Type of experiment: functional, Canis lupus familiaris, Urine.
Experiment [2] has as its system Canis familiaris. As to the kind of experiment: Diuretic activity in mongrel dog assessed as excretion of potassium ion at 10 mg/kg, iv measured after 15 and 45 mins (reference value: 16 to 37 uequiv/min). Type of experiment: functional, Canis lupus familiaris, Urine.
Experiment [3] deals with Canis familiaris. As to the kind of experiment: Diuretic activity in mongrel dog assessed as excretion of chloride ion at 10 mg/kg, iv measured after 15 and 45 mins (reference value: 4 to 64 uequiv/min). It counts as functional, Canis lupus familiaris, Urine.
The test system of experiment [4] is Canis familiaris. Nature of the experiment: Diuretic activity in mongrel dog assessed as urine volume at 10 mg/kg, iv measured after 15 and 45 mins (reference value: 1 to 2 ml/min). Type of experiment: functional, Canis lupus familiaris.
In experiment [5] the test system is Canis familiaris. Nature of the experiment: Diuretic activity in mongrel dog assessed as excretion of sodium ion at 5 mg/kg, iv measured after 15 and 45 mins (reference value: 5 to 99 uequiv/min). It counts as functional, Canis lupus familiaris, Urine.
In experiment [6] the test system is Canis familiaris. As to the kind of experiment: Diuretic activity in mongrel dog assessed as excretion of potassium ion at 5 mg/kg, iv measured after 15 and 45 mins (reference value: 15 to 55 uequiv/min). It counts as functional, Canis lupus familiaris, Urine.
In experiment [7] the test system is Canis familiaris. Nature of the experiment: Diuretic activity in mongrel dog assessed as excretion of chloride ion at 5 mg/kg, iv measured after 15 and 45 mins (reference value: 7 to 13 uequiv/min). Type of experiment: functional, Canis lupus familiaris, Urine.
Experiment [8] relates to Canis familiaris. As to the kind of experiment: Diuretic activity in mongrel dog assessed as urine volume at 5 mg/kg, iv measured after 15 and 45 mins (reference value: 1 to 2 ml/min). Type of experiment: functional, Canis lupus familiaris.
In experiment [9] the test system is Canis familiaris. Nature of the experiment: Diuretic activity in mongrel dog assessed as excretion of sodium ion at 0.1 mg/kg, iv measured after 15 and 45 mins (reference value: 36 to 73 uequiv/min). Type of experiment: functional, Canis lupus familiaris, Urine.
The test system of experiment [10] is Canis familiaris. Nature of the experiment: Diuretic activity in mongrel dog assessed as excretion of potassium ion at 0.1 mg/kg, iv measured after 15 and 45 mins (reference value: 14 to 35 uequiv/min). It counts as functional, Canis lupus familiaris, Urine.
Experiment [11] deals with Canis familiaris. As to the kind of experiment: Diuretic activity in mongrel dog assessed as excretion of chloride ion at 0.1 mg/kg, iv measured after 15 and 45 mins (reference value: 14 to 48 uequiv/min). It counts as functional, Canis lupus familiaris, Urine.
Experiment [12] deals with Canis familiaris. Nature of the experiment: Diuretic activity in mongrel dog assessed as urine volume at 0.1 mg/kg, iv measured after 15 and 45 mins (reference value: 1 to 3 ml/min). Type of experiment: functional, Canis lupus familiaris.
Experiment [13] has as its system Canis familiaris. As to the kind of experiment: Diuretic activity in mongrel dog assessed as excretion of sodium ion at 1 mg/kg, iv measured after 15 and 45 mins (reference value: 26 to 58 uequiv/min). Type of experiment: functional, Canis lupus familiaris, Urine.
For experiment [14], the system named is Canis familiaris. As to the kind of experiment: Diuretic activity in mongrel dog assessed as excretion of potassium ion at 1 mg/kg, iv measured after 15 and 45 mins (reference value: 46 to 28 uequiv/min). It counts as functional, Canis lupus familiaris, Urine.
For experiment [15], the system named is Canis familiaris. Nature of the experiment: Diuretic activity in mongrel dog assessed as excretion of chloride ion at 1 mg/kg, iv measured after 15 and 45 mins (reference value: 10 to 26 uequiv/min). Type of experiment: functional, Canis lupus familiaris, Urine.
Experiment [16] concerns Canis familiaris. As to the kind of experiment: Diuretic activity in mongrel dog assessed as urine volume at 1 mg/kg, iv measured after 15 and 45 mins (reference value: 1 to 4 ml/min). It counts as functional, Canis lupus familiaris.
Experiment [17] relates to Canis familiaris. Nature of the experiment: Diuretic activity in mongrel dog assessed as excretion of sodium ion per 6 hrs at 2 mg/kg, po (reference value: 2 mequiv/min). Type of experiment: functional, Canis lupus familiaris, Urine.
Experiment [18] concerns Canis familiaris. As to the kind of experiment: Diuretic activity in mongrel dog assessed as excretion of sodium ion per 6 hrs at 1 mg/kg, po (reference value: 2 mequiv/min). It counts as functional, Canis lupus familiaris, Urine.
In experiment [19] the test system is Canis familiaris. Nature of the experiment: Diuretic activity in mongrel dog assessed as excretion of potassium ion per 6 hrs at 2 mg/kg, po (reference value: 1 mequiv/min). Type of experiment: functional, Canis lupus familiaris, Urine.
The test system of experiment [20] is Canis familiaris. As to the kind of experiment: Diuretic activity in mongrel dog assessed as excretion of potassium ion per 6 hrs at 1 mg/kg, po (reference value: 1 mequiv/min). Type of experiment: functional, Canis lupus familiaris, Urine.
Experiment [21] has as its system Canis familiaris. Nature of the experiment: Diuretic activity in mongrel dog assessed as excretion of chloride ion per 6 hrs at 2 mg/kg, po (reference value: 2 mequiv/min). It counts as functional, Canis lupus familiaris, Urine.
The test system of experiment [22] is Canis familiaris. Nature of the experiment: Diuretic activity in mongrel dog assessed as excretion of chloride ion per 6 hrs at 1 mg/kg, po (reference value: 2 mequiv/min). Type of experiment: functional, Canis lupus familiaris, Urine.
Experiment [23] concerns Canis familiaris. Nature of the experiment: Diuretic activity in mongrel dog assessed as urine volume per 6 hrs at 2 mg/kg, po (reference value: 180 ml). Type of experiment: functional, Canis lupus familiaris.
In experiment [24] the test system is Canis familiaris. Nature of the experiment: Diuretic activity in mongrel dog assessed as urine volume per 6 hrs at 1 mg/kg, po (reference value: 180 ml). It counts as functional, Canis lupus familiaris.
The subject of experiment [25] is Canis familiaris. Nature of the experiment: Diuretic activity in mongrel dog assessed as excretion of sodium ion at 25 mg/kg, iv measured after 15 and 45 mins (reference value: 42 uequiv/min). Type of experiment: functional, Canis lupus familiaris, Urine.
Experiment [26] deals with Canis familiaris. As to the kind of experiment: Diuretic activity in mongrel dog assessed as excretion of potassium ion at 25 mg/kg, iv measured after 15 and 45 mins (reference value: 42 uequiv/min). Type of experiment: functional, Canis lupus familiaris, Urine.
The subject of experiment [27] is Canis familiaris. Nature of the experiment: Diuretic activity in mongrel dog assessed as excretion of chloride ion at 25 mg/kg, iv measured after 15 and 45 mins (reference value: 6 uequiv/min). It counts as functional, Canis lupus familiaris, Urine.
Experiment [28] relates to Canis familiaris. As to the kind of experiment: Diuretic activity in mongrel dog assessed as urine volume at 25 mg/kg, iv measured after 15 and 45 mins (reference value: 5 ml/min). It counts as functional, Canis lupus familiaris.

For the molecule `CC(=O)/C=C/c1ccc(OCC(=O)O)cc1`, the Activity in experiment [1] worked out at 91 uEq/min; in experiment [2], 50 uEq/min; in experiment [3], 55 uEq/min; in [4] it was 5 mL/min.
Regarding `CC(=O)/C=C/c1ccc(OCC(=O)O)c(Cl)c1Cl`, the Activity worked out at 911 uEq/min in [5], 76 uEq/min in [6], 1078 uEq/min in [7] and 8 mL/min in experiment [8].
For `COc1cc(/C=C/C(C)=O)ccc1OCC(=O)O`, in that order: 13 uEq/min, 36 uEq/min, 27 uEq/min and 1 mL/min.
As for `O=C(O)COc1ccc(/C=C2\CCC2=O)c(Cl)c1Cl`, the Activity worked out at 833 uEq/min in experiment [1]; 393 uEq/min in [9]; 93 uEq/min in experiment [2]; 89 uEq/min in [10]; 822 uEq/min in experiment [3]; 408 uEq/min in [11]. The Activity in experiment [4] turned out to be 8 mL/min; in experiment [12] it was 9 mL/min.
Take `O=C(O)COc1ccc(/C=C2\CCCC2=O)c(Cl)c1Cl`: the Activity in experiment [13] was 298 uEq/min; in experiment [14], 74 uEq/min; in [15], 330 uEq/min; in experiment [16], 4 mL/min.
On to `CC(=O)/C(C)=C/c1ccc(OCC(=O)O)c(Cl)c1Cl`, for which the Activity was 1096 uEq/min in [5]; 132 uEq/min in [6]; 1140 uEq/min in experiment [7]; 10 mL/min in experiment [8]; 16 milliequivalent in [17]; 9 milliequivalent in experiment [18]. The Activity was determined as 3 milliequivalent in experiment [19]; 5 milliequivalent in experiment [20]; 21 milliequivalent in [21]; 9 milliequivalent in experiment [22]; 506 mL in experiment [23]; 422 mL in [24].
As to `CCC(=O)/C(C)=C/c1ccc(OCC(=O)O)c(Cl)c1Cl`, the Activity in experiment [1] was found to be 79 uEq/min; in experiment [2] it was 42 uEq/min; in experiment [3] it was 67 uEq/min; in experiment [4], 2 mL/min.
As for `CC(=O)/C=C/c1ccc(OCC(=O)O)cc1Cl`, the Activity in experiment [1] came to 265 uEq/min; in experiment [2], 79 uEq/min; in experiment [3] it was 258 uEq/min; in [4], 3 mL/min.
As for `CCC(=O)/C=C/c1ccc(OCC(=O)O)c(Cl)c1Cl`, the Activity in experiment [1] came out at 973 uEq/min; in experiment [2], 118 uEq/min; in [3], 1089 uEq/min; in [4], 8 mL/min.
For the molecule `C/C(C=O)=C\c1ccc(OCC(=O)O)c(Cl)c1Cl`, the Activity is on record as 140 uEq/min in experiment [5]; 449 uEq/min in experiment [25]; 51 uEq/min in [6]; 86 uEq/min in [26]; 130 uEq/min in experiment [7]; 542 uEq/min in [27]. Besides, the Activity turned out to be 3 mL/min in experiment [8] and 5 mL/min in experiment [28].
Take `O=C(O)COc1ccc(/C=C2\CCCCC2=O)c(Cl)c1Cl`: the Activity came out at 1306 uEq/min in [5], 119 uEq/min in [6], 1340 uEq/min in experiment [7] and 12 mL/min in experiment [8].
Take `CC(=O)C(=Cc1ccc(OCC(=O)O)c(Cl)c1Cl)C(C)=O`: the Activity in [9] was determined as 984 uEq/min; in experiment [10] it was 87 uEq/min; in [14] it was 104 uEq/min; in experiment [12] it was 9 mL/min; in experiment [16], 11 mL/min.
Regarding `C=C(CC)C(=O)c1ccc(OCC(=O)O)c(Cl)c1Cl` [ETHACRYNIC ACID], the Activity in experiment [1] is reported as 2989 uEq/min; in experiment [13] it was 188 uEq/min; in [2], 194 uEq/min; in experiment [14] it was 52 uEq/min; in [3] it was 3324 uEq/min; in experiment [15], 244 uEq/min. Besides, the Activity in experiment [4] was 22 mL/min; in experiment [16] it was 6 mL/min; in experiment [18], 21 milliequivalent; in experiment [20] it was 5 milliequivalent; in experiment [22] it was 26 milliequivalent; in [24], 560 mL.
Turning to `NS(=O)(=O)c1cc(C(=O)O)c(NCc2ccco2)cc1Cl` [FUROSEMIDE], the Activity in [18] is 19 milliequivalent; in experiment [20], 4 milliequivalent; in [22] it was 18 milliequivalent; in [24] it was 624 mL.

The record behind these values is ChEMBL document CHEMBL3271942, “(Vinylaryloxy)acetic acids. A new class of diuretic agents. 2. (4-(3-Oxo-1-alkenyl)phenoxy)acetic acids” (1976).
